The values that follow come from US6803466B1, “HIV/FIV protease inhibitors having a small P3 residue” (The Scripps Research Institute, priority 1997, dated 2004).

The structures appear in SMILES notation.

One assay addresses T1, HIV PR G48V (Human immunodeficiency virus type 1 group M subtype B, UniProt P03366, G548V).
T1 construct: drug-resistant mutant HIV PRs G48V and V82F
The settings on record: licensed drugs, literature; cited from earlier work.

The target of a further assay is T2, HIV PR V82F (Human immunodeficiency virus type 1 group M subtype B, UniProt P03366, V582F).
T2 construct: drug-resistant mutant HIV PRs G48V and V82F
The settings on record: licensed drugs, literature; cited from earlier work.

The target in assay [1] is T3, FIV PR (Feline immunodeficiency virus, UniProt P16088, C122K/G43I/N93T).
T3 construct: made in house; host or cells: E. coli BL21(DE3)
In words: Inhibition of FIV PR (Ki, IC50). Format: biochemical. The method, then:
The solution was mixed and incubated for 10 minutes at 37° C. and the reaction quenched by addition of 8M guanidine HCl solution containing 0.2 M sodium acetate at pH 4.2 (100 μL). The cleavage products and substrate were separated by reverse phase HPLC. Absorbance was measured at 215 nm, peak areas were determined and percent conversion to product was calculated using relative peak areas. […] IC50 was determined as the inhibitor concentration at 50% inhibition. […] ([S]=substrate concentration in nmol). The data used was generated similarly to that for Ki with the following modifications. The substrate concentrations used were 560, 448, 336, 224, 111 and 56 μM, in the absence of inhibitor.
(§1) Kinetic determinations for both HIV PR and FIV PRs were performed at 37° C. at pH 5.25 in duplicate using F-2000 fluorescence spectrophotometer (Hitachi).
(§2) For FIV PRs, the kinetic data were determined under the similar reaction conditions as for HIV PR.

Assay [2] deals with mutant FIV PRs (FIV(V59I), FIV(Q99V)). Briefly: Inhibition of mutant FIV PRs. In kind it is biochemical, feline immunodeficiency virus. The method, then:
The inhibitory effects of each inhibitor were evaluated against HIV and FIV PRs along with two mutant FIV PRs that contain amino acid substitutions corresponding to those in HIV PR at homologous sites.
as §2
Mutant FIV PRs were prepared that contained substitutions of HIV residues noted to be associated with drug resistance in HIV (16) at equivalent sites in the three dimensional structure.

The target in a further assay is T4, HIV PR (Human immunodeficiency virus type 1 group M subtype B, UniProt P03366, Q507K).
T4 construct: initiator Met plus the eight Pol residues preceding PR (N-terminal extension of the expressed precursor) (N); made in house; host or cells: E. coli BL21.DE3, pLysS
In words: Inhibition of HIV PR (Ki, IC50), fluorogenic substrate. Format: biochemical. The method, then:
The solution was mixed and incubated over 5 minutes during which time the rate of substrate cleavage was monitored by continuously recording the change in fluorescence of the assay solution. An excitation filter of 325 nm, and an emission filter of 420 nm were used.
Determination of Ki for HIV protease was performed similarly with the following modifications. The substrate concentrations used were 57, 43, 28 and 14 μM. All other concentrations were as above. The curve fit for the data was determined and the subsequent Ki derived using a computer program based on the equation of Morrison et. al. BioChim. Biophys. ACTA 1969,185, 269, for tight binding inhibitors.
as §1
For HIV PR, the KM and Vmax values for the fluorogenic peptide substrate 2-aminobenzoyl (Abz)-Thr-Ile-Nle-Phe-(p-NO2)-Gln-Arg-NH2 (SEQ ID NO: 3) Toth et al Int. J. Peptide Res. 36, 544-550 were determined by measuring the initial rate of hydrolysis at different substrate concentrations (5.0, 7.5, 10, 20, 35, 50, 100, and 200 μM) by monitoring the change in fluorescence at an excitation wavelength of 325 nm and an emission wavelength of 420 nm, and fitting the obtained data to the Michaelis-Menten equation using the Grafit program (version 3.0, Erithacus Software Ltd., UK). Assays were run in 0.1 M MES buffer, containing 5% (v/v) glycerol, and 5% (v/v) DMSO (200 μl final volume). The enzyme concentration (30 μg/ml) which gave ideal progress curve was used for assays, but the dimeric active HIV PR concentration was not accurately determined. […] The curve fit the data was determined, and the subsequent Ki was derived using the Grafit program.

The test system of assay [3] is FIV-PPR in feline T-cells (104-C1). In words: Ex vivo inhibitor analysis against FIV, pelletable reverse transcriptase in culture supernatant. Format: cell-based, feline immunodeficiency virus. Here is the method:
For FIV, the assays were performed in FIV-infected feline T-cells which were cultured in the presence of compound 1200 at different concentrations over the course of 1 month. Each data in FIG. 14 represents the amount of pelletable FIV reverse transcriptase in the culture supernatant. […] After one month, the drug-treated cultures were split and replated with and without compound 1200.
The lymphocytic cell line 104-C1 (provided by C. Grant) was used as the target for infection. Cells were cultured in RPMI-1640 media supplemented with 10% FBS, 200 μM L-Glutamine, 1×MEM-Vitamins, 100 μM Sodium Pyruvate, 1×Non-Essential Amino Acids, 5.5×10−5M b-ME, 50 μg/ml Gentamicin, 50 U/ml human recombinant Interleukin-2 (provided by Hoffmann-LaRoche) and 7.5 μg/ml Concanavalin-A. For inhibitor assessment, 5×10^6 cells were infected with FIV-PPR (4×105 RT units) in 1 mL culture for 2 hr at 37° C. […] The cells were then washed with Hanks-buffered saline solution (HBSS) and resuspended in 10 ml of complete medium. The compound 1200 (10 mg/mL in DMSO) was then added to final concentrations of 0.1, 0.5, 1, and 5 μg/ml in duplicate. The cells were then incubated at 37° C. The culture supernatants were monitored for the presence of pelletable reverse transcriptase activity at weekly intervals, as follows. Cell-free culture supernatants (4 ml) were centrifuged at 60K for 30 min and the pellets were resuspended in 100 μl of lysis buffer containing 40 mM TrisHCl (pH 8.1), 360 mM NaCl, 20 mM DTT and 0.2% NP40. Twenty five μl of lysate was added to 25 μl of a mixture containing polyrA-pdT (Pharmacia, Piscataway, N.J.), MgCl2, and 3H-labeled deoxythymidine 5′-triphosphate (DuPont NEN, Boston, Mass.), and incubated for 1 hr at 37° C. The mixture was spotted on DE81 paper, air-dried, fixed in 0.1 M sodium pyrophosphate, washed three times in 0.3 M ammonium formate, and an additional time in 95% ethanol. The paper was then dried and counted on a scintillation counter.
Cells were split 1:5 after the second, third, and fourth time points and fresh inhibitor was added at the appropriate concentration at each of these intervals. The data were expressed as values +/−standard deviation of the mean.

The target of assay [4] is T3, FIV PR. The settings on record: relative to HIV PR; Slee et al.; cited from earlier work.

Consider `CC(C)c1nc(CN(C)C(=O)N[C@H](C(=O)N[C@@H](Cc2ccccc2)C[C@H](O)[C@H](Cc2ccccc2)NC(=O)OCc2cncs2)C(C)C)cs1` [ABT-538], for which the “higher IC50 / decreased potency, G48V mutant compared to wild-type HIV PR” value at HIV PR G48V was 17 fold. For the same compound, at HIV PR V82F, the “higher IC50 / less sensitive, V82F mutant compared to wild-type HIV PR” value is 90 fold.
Consider `Cc1c(O)cccc1C(=O)N[C@@H](CSc1ccccc1)[C@H](O)CN1C[C@H]2CCCC[C@H]2C[C@H]1C(=O)NC(C)(C)C` [AG-1343], for which the “higher IC50 / less sensitive, V82F mutant compared to wild-type HIV PR” value on HIV PR V82F is given as 15 fold.
Consider `CC(C)[C@H](NC(=O)[C@H](Cc1ccccc1)NC(=O)OCc1ccccc1)C(=O)N[C@@H](Cc1ccccc1)[C@@H](O)[C@H](O)[C@H](Cc1ccccc1)NC(=O)[C@@H](NC(=O)[C@H](Cc1ccccc1)NC(=O)OCc1ccccc1)C(C)C` [Compound 10b], for which the inhibition constant Ki on FIV PR [1] is 7 µM. In addition, on FIV PR [1] (versus 1b), the “lower potency than 1b against FIV PR” value came out at 170 fold. Also, the “lower potency compared to 1100, FIV PR” value at FIV PR [1] (versus 1100) amounted to 45 fold. Besides, the “Ki higher / potency lower than 1200, FIV PR” value at FIV PR [1] (versus 1200) is 170 fold. In addition, the “activity against mutant FIV PRs compared to wild type FIV PR (in words)” value in assay [2] is recorded as “very similar activities”.
In the case of `CC(C)[C@H](NC(=O)[C@H](CO)NC(=O)OCc1ccccc1)C(=O)N[C@@H](Cc1ccccc1)[C@@H](O)[C@H](O)[C@H](Cc1ccccc1)NC(=O)[C@@H](NC(=O)[C@H](CO)NC(=O)OCc1ccccc1)C(C)C` [Compound 12], on HIV PR, the Ki was 0.00058 µM and the “inhibition of HIV PR (in words)” value is reported as “effective inhibitors”. Further, the “higher potency against HIV PR compared to 1b” value on HIV PR (versus 1b) came out at 3 fold. On FIV PR [1], the Ki came out at 0.032 µM and the “inhibition of FIV PR (in words)” value is “effective inhibitors”. In addition, the “prevention of FIV infection in tissue culture (in words)” value in assay [3] was “not as effective as 1b”.
Regarding `CC(C)(C)NC(=O)[C@@H]1CN(Cc2cccnc2)CCN1C[C@@H](O)C[C@@H](Cc1ccccc1)C(=O)N[C@H]1c2ccccc2C[C@H]1O` [MK-639], the “higher IC50 / less sensitive, V82F mutant compared to wild-type HIV PR” value on HIV PR V82F is on record as 7 fold.
At HIV PR, `CC(C)(C)NC(=O)[C@@H]1C[C@@H]2CCCC[C@@H]2CN1C[C@@H](O)[C@H](Cc1ccccc1)NC(=O)[C@H](CC(N)=O)NC(=O)c1ccc2ccccc2n1` [RO31-8959, reference compound] returned an inhibitory constant (Ki) of 0.0016 µM. At FIV PR [1], the Ki was 76 µM and the “inhibition of FIV PR (in words)” value is “total loss of potency”. Further, at FIV PR [4], the “less efficient inhibitor of FIV PR, factor” value is not below 100. The “higher IC50 / decreased potency, G48V mutant compared to wild-type HIV PR” value on HIV PR G48V is 27 fold.

For orientation: Ki means the dissociation constant of the complex between target and ligand, obtained from inhibition or displacement. Lower therefore signals higher affinity.
